We go through 32 compounds from US20150141437A1, “AMIDOPHENOXYPROPANOLAMINES” (MEDIZINISCHE UNIVERSITÄT WIEN, priority 2012, published 2015).

Test [1] deals with P. falciparum NF54 (CQ sensitive). Briefly: [3H]-hypoxanthine incorporation assay, NF54 strain. The test is classed as cell-based. Conditions: Plasmodium falciparum, values marked with asterisk: [3H]-hypoxanthine assay, read-out: IC50 growth inhibition NF54*.
For test [2], the system named is P. falciparum K1 (CQ-resistant). Nature of the test: [3H]-hypoxanthine incorporation assay, K1 strain. It is filed as cell-based. The settings on record: Plasmodium falciparum, values marked with asterisk: [3H]-hypoxanthine assay, read-out: IC50 growth inhibition K1 (*).

By IC50 is commonly meant the concentration that gives 50% inhibition. In the case of `O=C(Nc1ccc(Br)cc1)c1ccccc1OCC(O)CNCC12CC3CC(CC(C3)C1)C2` (stereo not shown) [Compound I-74, 2-{3-[(Adamantan-1-ylmethyl)-amino]-2-hydroxy-propoxy}-N-(4-bromo-phenyl)-benzamide], the IC50 came to 4.8 nM in test [1] and 1.2 nM in test [2].
The matching figures for `Cc1ccc(NC(=O)c2ccccc2OCC(O)CN2CCC(Cc3ccccc3)CC2)cc1` (stereo not shown) [Compound I-81, 2-[3-(4-Benzyl-piperidin-1-yl)-2-hydroxy-propoxy]-N-p-tolyl-benzamide]: 36 nM and 8.6 nM.
On the same counts, the results for `O=C(Nc1cccc(C(F)(F)F)c1)c1cc(Cl)ccc1OCC(O)CN1CCC(c2ccccc2)CC1` (stereo not shown) [Compound I-83, 5-Chloro-2-[2-hydroxy-3-(4-phenyl-piperidin-1-yl)-propoxy]-N-(3-trifluoromethyl-phenyl)-benzamide] are 16 nM and 3.5 nM.
Regarding `O=C(Nc1ccc(F)cc1)c1ccccc1OCC(O)CN1CCC(Cc2ccccc2)CC1` (stereo not shown) [Compound I-47, 2-[3-(4-Benzyl-piperidin-1-yl)-2-hydroxy-propoxy]-N-(4-fluoro-phenyl)-benzamide], the half-inhibitory concentration (IC50) came to 16 nM in test [1] and 7 nM in test [2].
On the same counts, the results for `C#CCOc1ccc(OCC(O)CNCc2ccc(C3(C(F)(F)F)N=N3)cc2)c(C(=O)Nc2ccc(F)cc2)c1` (stereo not shown) [Compound I-45, N-(4-Fluoro-phenyl)-2-{2-hydroxy-3-[4-(3-trifluoromethyl-3H-diazirin-3-yl)-benzylamino]-propoxy}-5-prop-2-ynyloxy-benzamide] are 1860 nM and 542 nM.
With `Cc1ccc(NC(=O)c2ccccc2OCC(O)CN2CCC(c3ccccc3)CC2)cc1` (stereo not shown) [Compound I-80, 2-[2-Hydroxy-3-(4-phenyl-piperidin-1-yl)-propoxy]-N-p-tolyl-benzamide], the figures for the half-inhibitory concentration (IC50) in test [1] and in test [2] were 47 nM and 11 nM, respectively.
On the same counts, the results for `O=C(Nc1cccc(C(F)(F)F)c1)c1cc(Cl)ccc1OCC(O)CNCC12CC3CC(CC(C3)C1)C2` (stereo not shown) [Compound I-72, 2-{3-[(Adamantan-1-ylmethyl)-amino]-2-hydroxy-propoxy}-5-chloro-N-(3-trifluoromethyl-phenyl)-benzamide] are 4.2 nM and 1 nM.
The matching figures for `CCCCN(CCCC)CC(O)COc1ccccc1C(=O)NCCC(C)C` (stereo not shown) [Compound I-57, 2-(3-Dibutylamino-2-hydroxy-propoxy)-N-(3-methyl-butyl)-benzamide]: 333 nM and 76 nM.
Take `O=C(NCCCc1ccccc1)c1ccccc1OCC(O)CNCC12CC3CC(CC(C3)C1)C2` (stereo not shown) [Compound I-32, 2-{3-[(Adamantan-1-ylmethyl)-amino]-2-hydroxy-propoxy}-N-(3-phenyl-propyl)-benzamide]: the half-inhibitory concentration (IC50) in test [1] was determined as 148 nM; in test [2], 52 nM.
The matching figures for `Cc1ccc(NC(=O)c2ccccc2OCC(O)CN2CCN(C(c3ccccc3)c3ccccc3)CC2)cc1` (stereo not shown) [Compound I-82, 2-[3-(4-Benzhydryl-piperazin-1-yl)-2-hydroxy-propoxy]-N-p-tolyl-benzamide]: 24 nM and 5.9 nM.
On the same counts, the results for `CN(CC(O)COc1ccccc1C(=O)NCc1ccccc1)CC12CC3CC(CC(C3)C1)C2` (stereo not shown) [Compound I-36, 2-[3-(Adamantan-1-ylmethyl-methyl-amino)-2-hydroxy-propoxy]-N-benzyl-benzamide] are 670 nM and 182 nM.
On the same counts, the results for `O=C(Nc1ccccc1F)c1ccccc1OCC(O)CNCC12CC3CC(CC(C3)C1)C2` (stereo not shown) [Compound I-38, 2-{3-[(Adamantan-1-ylmethyl)-amino]-2-hydroxy-propoxy}-N-(2-fluoro-phenyl)-benzamide] are 24 nM and 8 nM.
`O=C(Nc1cccc(C(F)(F)F)c1)c1cc(Cl)ccc1OCC(O)CN1CCC(Cc2ccccc2)CC1` (stereo not shown) [Compound I-84, 2-[3-(4-Benzyl-piperidin-1-yl)-2-hydroxy-propoxy]-5-chloro-N-(3-trifluoromethyl-phenyl)-benzamide]: the concentration for half-maximal inhibition (IC50) in test [1] was found to be 3.8 nM; in test [2] it was 1 nM.
On the same counts, the results for `CN(CC(O)COc1ccccc1C(=O)Nc1ccc(F)cc1)CC12CC3CC(CC(C3)C1)C2` (stereo not shown) [Compound I-37, 2-[3-(Adamantan-1-ylmethyl-methyl-amino)-2-hydroxy-propoxy]-N-(4-fluoro-phenyl)-benzamide] are 63 nM and 16 nM.
On the same counts, the results for `O=C(Nc1ccccc1F)c1ccccc1OCC(O)CN1CCC(Cc2ccccc2)CC1` (stereo not shown) [Compound I-78, 2-[3-(4-Benzyl-piperidin-1-yl)-2-hydroxy-propoxy]-N-(2-fluoro-phenyl)-benzamide] are 205 nM and 74 nM.
With `CCCCN(CCCC)CC(O)COc1ccccc1C(=O)Nc1ccc(F)cc1` (stereo not shown) [Compound I-61, 2-(3-Dibutylamino-2-hydroxy-propoxy)-N-(4-fluoro-phenyl)-benzamide], the results for the IC50 in test [1] and in test [2] were 18 nM and 6 nM, respectively.
As for `O=C(Nc1ccc(F)cc1)c1ccccc1OCC(O)CNC12CC3CC(CC(C3)C1)C2` (stereo not shown) [Compound I-3, 2-[3-(Adamantan-1-ylamino)-2-hydroxy-propoxy]-N-(4-fluoro-phenyl)-benzamide], the IC50 in test [1] worked out at 51 nM; in test [2], 11 nM.
The matching figures for `O=C(NCCc1ccccc1)c1cc(Cl)ccc1OCC(O)CNC1C2CC3CC(C2)CC1C3` (stereo not shown) [Compound I-10, 2-[3-(Adamantan-2-ylamino)-2-hydroxy-propoxy]-5-chloro-N-phenethyl-benzamide]: 96 nM and 26 nM.
The matching figures for `O=C(NCc1cccc2ccccc12)c1cc(Cl)ccc1OCC(O)CNCC12CC3CC(CC(C3)C1)C2` (stereo not shown) [Compound I-34, 2-{3-[(Adamantan-1-ylmethyl)-amino]-2-hydroxy-propoxy}-5-chloro-N-naphthalen-1-ylmethyl-benzamide]: 20 nM and 5 nM.
As to `O=C(NCCc1ccccc1)c1ccccc1OCC(O)CNCC12CC3CC(CC(C3)C1)C2` (stereo not shown) [Compound I-31, 2-{3-[(Adamantan-1-ylmethyl)-amino]-2-hydroxy-propoxy}-N-phenethyl-benzamide], the IC50 in test [1] stood at 101 nM; in test [2], 30 nM.
The matching figures for `CC(C)CCNC(=O)c1ccccc1OCC(O)CNC(C)C12CC3CC(CC(C3)C1)C2` (stereo not shown) [Compound I-25, 2-[3-(1-Adamantan-1-yl-ethylamino)-2-hydroxy-propoxy]-N-(3-methyl-butyl)-benzamide]: 74 nM and 18 nM.
Take `CC(NCC(O)COc1ccc(Cl)cc1C(=O)NCc1cccc2ccccc12)C12CC3CC(CC(C3)C1)C2` (stereo not shown) [Compound I-35, 2-[3-(1-Adamantan-1-yl-ethylamino)-2-hydroxy-propoxy]-5-chloro-N-naphthalen-1-ylmethyl-benzamide]: the concentration for half-maximal inhibition (IC50) in test [1] is 14 nM; in test [2], 4 nM.
Regarding `CC(C)CCNCC(O)COc1ccccc1C(=O)NCCC(C)C` (stereo not shown) [Compound I-58, 2-[2-Hydroxy-3-(3-methyl-butylamino)-propoxy]-N-(3-methyl-butyl)-benzamide], the IC50 in test [1] came out at 1690 nM; in test [2], 467 nM.
Consider `O=C(Nc1ccccc1F)c1ccccc1OCC(O)CN1CCC(c2ccccc2)CC1` (stereo not shown) [Compound I-77, N-(2-Fluoro-phenyl)-2-[2-hydroxy-3-(4-phenyl-piperidin-1-yl)-propoxy]-benzamide], for which the concentration for half-maximal inhibition (IC50) in test [1] came out at 256 nM; in test [2], 105 nM.
On to `C=CCc1ccccc1NC(=O)c1ccccc1OCC(O)CNCC12CC3CC(CC(C3)C1)C2` (stereo not shown) [Compound I-73, 2-{3-[(Adamantan-1-ylmethyl)-amino]-2-hydroxy-propoxy}-N-(2-allyl-phenyl)-benzamide], for which the 50% inhibitory concentration (IC50) turned out to be 73 nM in test [1] and 21 nM in test [2].
On the same counts, the results for `O=C(Nc1ccccc1F)c1ccccc1OCC(O)CN1CCN(C(c2ccccc2)c2ccccc2)CC1` (stereo not shown) [Compound I-79, 2-[3-(4-Benzhydryl-piperazin-1-yl)-2-hydroxy-propoxy]-N-(2-fluoro-phenyl)-benzamide] are 258 nM and 83 nM.
On the same counts, the results for `O=C(Nc1cccc(C(F)(F)F)c1)c1ccccc1OCC(O)CNC12CC3CC(CC(O)(C3)C1)C2` (stereo not shown) [Compound I-70, 2-[2-Hydroxy-3-(3-hydroxy-adamantan-1-ylamino)-propoxy]-N-(3-trifluoromethyl-phenyl)-benzamide] are 1500 nM and 921 nM.
On the same counts, the results for `O=C(NCCc1ccccc1)c1cc(Cl)ccc1OCC(O)CNCC12CC3CC(CC(C3)C1)C2` (stereo not shown) [Compound I-33, 2-{3-[(Adamantan-1-ylmethyl)-amino]-2-hydroxy-propoxy}-5-chloro-N-phenethyl-benzamide] are 27 nM and 8 nM.
Consider `CCCCNCC(O)COc1ccccc1C(=O)NCCC(C)C` (stereo not shown) [Compound I-56, 2-(3-Butylamino-2-hydroxy-propoxy)-N-(3-methyl-butyl)-benzamide], for which the values for the IC50 in test [1] and in test [2] were 2750 nM and 827 nM, respectively.
On the same counts, the results for `O=C(Nc1cccc(C(F)(F)F)c1)c1ccccc1OCC(O)CN1CCN(C(c2ccccc2)c2ccccc2)CC1` (stereo not shown) [Compound I-69, 2-[3-(4-Benzhydryl-piperazin-1-yl)-2-hydroxy-propoxy]-N-(3-trifluoromethyl-phenyl)-benzamide] are 5.5 nM and 1.3 nM.
The matching figures for `CC(C)CCNC(=O)c1ccccc1OCC(O)CNCc1ccc(C(F)(F)F)cc1` (stereo not shown) [Compound I-60, 2-[2-Hydroxy-3-(4-trifluoromethyl-benzylamino)-propoxy]-N-(3-methyl-butyl)-benzamide]: 1360 nM and 371 nM.
On the same counts, the results for `O=C(Nc1ccc(F)cc1)c1ccccc1OCC(O)CN1CCN(C(c2ccccc2)c2ccccc2)CC1` (stereo not shown) [Compound I-48, 2-[3-(4-Benzhydryl-piperazin-1-yl)-2-hydroxy-propoxy]-N-(4-fluoro-phenyl)-benzamide] are 14 nM and 4 nM.
